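Five compound concentrations were applied to cells in 96-well plates for 48 hours; endpoints were derived by simple linear interpolation of the resulting dose-response curve. TGI denotes the concentration required for complete inhibition of growth.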
Legend:
Assay in all cases: inhibition of tumour cell growth, NCI panel, 48 h
OVCAR-8 ovarian = tested on: OVCAR-8 ovarian
COLO 205 colon = tested on: COLO 205 colon
MOLT-4 leukemia = tested on: MOLT-4 leukemia
786-0 renal = tested on: 786-0 renal
ACHN renal = tested on: ACHN renal
RPMI-8226 leukemia = tested on: RPMI-8226 leukemia
SW-620 colon = tested on: SW-620 colon
LOX IMVI melanoma = tested on: LOX IMVI melanoma
UACC-62 melanoma = tested on: UACC-62 melanoma
NCI/ADR-RES ovarian = tested on: NCI/ADR-RES ovarian
BT-549 breast = tested on: BT-549 breast
MDA-MB-231 breast = tested on: MDA-MB-231 breast
SK-OV-3 ovarian = tested on: SK-OV-3 ovarian
MCF7 breast = tested on: MCF7 breast
SN12C renal = tested on: SN12C renal
HCT-15 colon = tested on: HCT-15 colon
RXF 393 renal = tested on: RXF 393 renal
NCI-H522 lung = tested on: NCI-H522 lung
SK-MEL-28 melanoma = tested on: SK-MEL-28 melanoma
NCI-H226 lung = tested on: NCI-H226 lung
SK-MEL-5 melanoma = tested on: SK-MEL-5 melanoma
SR leukemia = tested on: SR leukemia
HCT-116 colon = tested on: HCT-116 colon
OVCAR-3 ovarian = tested on: OVCAR-3 ovarian
OVCAR-5 ovarian = tested on: OVCAR-5 ovarian
MDA-MB-435 = tested on: MDA-MB-435
SF-268 CNS = tested on: SF-268 CNS
DU-145 prostate = tested on: DU-145 prostate
SK-MEL-2 melanoma = tested on: SK-MEL-2 melanoma
KM12 colon = tested on: KM12 colon
EKVX NSCLC = tested on: EKVX NSCLC
OVCAR-4 ovarian = tested on: OVCAR-4 ovarian
CCRF-CEM leukemia = tested on: CCRF-CEM leukemia
MALME-3M melanoma = tested on: MALME-3M melanoma
TK-10 renal = tested on: TK-10 renal
MDA-N = tested on: MDA-N
HOP-62 NSCLC = tested on: HOP-62 NSCLC
NCI-H460 lung = tested on: NCI-H460 lung
U251 CNS = tested on: U251 CNS
PC-3 prostate = tested on: PC-3 prostate
HS 578T breast = tested on: HS 578T breast
CAKI-1 renal = tested on: CAKI-1 renal
UACC-257 melanoma = tested on: UACC-257 melanoma
SF-295 CNS = tested on: SF-295 CNS
HT29 colon = tested on: HT29 colon
K-562 leukemia = tested on: K-562 leukemia
HOP-92 NSCLC = tested on: HOP-92 NSCLC
HL-60(TB) leukemia = tested on: HL-60(TB) leukemia
M14 melanoma = tested on: M14 melanoma
NCI-H23 lung = tested on: NCI-H23 lung
SNB-75 CNS = tested on: SNB-75 CNS
IGROV1 ovarian = tested on: IGROV1 ovarian
T-47D breast = tested on: T-47D breast
SNB-19 CNS = tested on: SNB-19 CNS
A549 NSCLC = tested on: A549 NSCLC
SF-539 CNS = tested on: SF-539 CNS
UO-31 renal = tested on: UO-31 renal
A498 renal = tested on: A498 renal
HCC-2998 colon = tested on: HCC-2998 colon

CN1CCc2c(sc3[nH]c(=S)[nH]c(=S)c23)C1
TGI (OVCAR-8 ovarian): > 100 µM
TGI (COLO 205 colon): > 100 µM
TGI (MOLT-4 leukemia): > 100 µM
TGI (786-0 renal): > 100 µM
TGI (ACHN renal): > 100 µM
TGI (RPMI-8226 leukemia): > 100 µM
TGI (SW-620 colon): > 100 µM
TGI (LOX IMVI melanoma): > 100 µM
TGI (UACC-62 melanoma): > 100 µM
TGI (NCI/ADR-RES ovarian): > 100 µM
TGI (BT-549 breast): > 100 µM
TGI (MDA-MB-231 breast): > 100 µM
TGI (SK-OV-3 ovarian): > 100 µM
TGI (MCF7 breast): > 100 µM
TGI (SN12C renal): > 100 µM
TGI (HCT-15 colon): > 100 µM
TGI (RXF 393 renal): > 100 µM
TGI (NCI-H522 lung): > 100 µM
TGI (SK-MEL-28 melanoma): > 100 µM
TGI (NCI-H226 lung): > 100 µM
TGI (SK-MEL-5 melanoma): > 100 µM
TGI (SR leukemia): > 100 µM
TGI (HCT-116 colon): > 100 µM
TGI (OVCAR-3 ovarian): > 100 µM
TGI (OVCAR-5 ovarian): > 100 µM
TGI (MDA-MB-435): > 100 µM
TGI (SF-268 CNS): > 100 µM
TGI (DU-145 prostate): > 100 µM
TGI (SK-MEL-2 melanoma): > 100 µM
TGI (KM12 colon): > 100 µM
TGI (EKVX NSCLC): > 100 µM
TGI (OVCAR-4 ovarian): > 100 µM
TGI (CCRF-CEM leukemia): > 100 µM
TGI (MALME-3M melanoma): > 100 µM
TGI (TK-10 renal): > 100 µM
TGI (MDA-N): > 100 µM
TGI (HOP-62 NSCLC): > 100 µM
TGI (NCI-H460 lung): > 100 µM
TGI (U251 CNS): > 100 µM
TGI (PC-3 prostate): > 100 µM
TGI (HS 578T breast): > 100 µM
TGI (CAKI-1 renal): > 100 µM
TGI (UACC-257 melanoma): > 100 µM
TGI (SF-295 CNS): > 100 µM
TGI (HT29 colon): > 100 µM
TGI (K-562 leukemia): > 100 µM
TGI (HOP-92 NSCLC): > 100 µM
TGI (HL-60(TB) leukemia): > 100 µM
TGI (M14 melanoma): > 100 µM
TGI (NCI-H23 lung): > 100 µM
TGI (SNB-75 CNS): > 100 µM
TGI (IGROV1 ovarian): > 100 µM
TGI (T-47D breast): > 100 µM
TGI (SNB-19 CNS): > 100 µM
TGI (A549 NSCLC): > 100 µM
TGI (SF-539 CNS): > 100 µM

CCCCC1C=Cn2c(=O)oc3c(OC(C)C)c(C)c(O)c1c32 (stereo not drawn)
TGI (OVCAR-8 ovarian): 11.4 µM
TGI (COLO 205 colon): 9.97 µM
TGI (MOLT-4 leukemia): 3.33 µM
TGI (ACHN renal): 3.35 µM
TGI (RPMI-8226 leukemia): 11.8 µM
TGI (SW-620 colon): 11.9 µM
TGI (LOX IMVI melanoma): 5.52 µM
TGI (UACC-62 melanoma): 2.97 µM
TGI (NCI/ADR-RES ovarian): 5.88 µM
TGI (BT-549 breast): 13.4 µM
TGI (MDA-MB-231 breast): 4.87 µM
TGI (SK-OV-3 ovarian): 13.3 µM
TGI (MCF7 breast): 1.81 µM
TGI (SN12C renal): 3.71 µM
TGI (HCT-15 colon): 12.4 µM
TGI (NCI-H522 lung): 5.87 µM
TGI (SK-MEL-28 melanoma): 8.33 µM
TGI (NCI-H226 lung): 8.12 µM
TGI (SK-MEL-5 melanoma): 6.59 µM
TGI (SR leukemia): 6.17 µM
TGI (HCT-116 colon): 7.07 µM
TGI (OVCAR-3 ovarian): 14.8 µM
TGI (OVCAR-5 ovarian): 15.1 µM
TGI (MDA-MB-435): 3.38 µM
TGI (SF-268 CNS): 13.2 µM
TGI (DU-145 prostate): 5.5 µM
TGI (SK-MEL-2 melanoma): 5.07 µM
TGI (KM12 colon): 8.26 µM
TGI (EKVX NSCLC): 6.83 µM
TGI (OVCAR-4 ovarian): 2.37 µM
TGI (CCRF-CEM leukemia): 5.1 µM
TGI (MALME-3M melanoma): 4.1 µM
TGI (TK-10 renal): 18.7 µM
TGI (MDA-N): 9.67 µM
TGI (HOP-62 NSCLC): 10.5 µM
TGI (UO-31 renal): 7.02 µM
TGI (NCI-H460 lung): 8.39 µM
TGI (U251 CNS): 11 µM
TGI (PC-3 prostate): 14.2 µM
TGI (HS 578T breast): 14.3 µM
TGI (CAKI-1 renal): 2.34 µM
TGI (UACC-257 melanoma): 8.78 µM
TGI (SF-295 CNS): 7.16 µM
TGI (A498 renal): 1.1 µM
TGI (HT29 colon): 11.7 µM
TGI (K-562 leukemia): > 35.3 µM
TGI (HOP-92 NSCLC): 12.2 µM
TGI (HL-60(TB) leukemia): 1.88 µM
TGI (M14 melanoma): 3.15 µM
TGI (NCI-H23 lung): 4.71 µM
TGI (SNB-75 CNS): 4.83 µM
TGI (IGROV1 ovarian): 10.1 µM
TGI (T-47D breast): 5.93 µM
TGI (SNB-19 CNS): 13.3 µM
TGI (HCC-2998 colon): 13.6 µM
TGI (A549 NSCLC): 6.97 µM
TGI (SF-539 CNS): 19.2 µM

From PubChem BioAssay (NCI)
